Like-named read-outs stand apart in the source and are kept apart here.
Tests used:
[1] = target: T1, EGF receptor autophosphorylation in A431 cells (Homo sapiens, UniProt P00533); assay: Autophosphorylation assay in A431 cells; assay type: cell-based; details: EGF-stimulated EGFR autophosphorylation in A431 cells
T1 construct: A431 human epidermoid carcinoma cells were grown in 6-well plates; endogenous in cells; host or cells: A431 human epidermoid carcinoma cells
Description: (§1) Extracts were made by lysing the monolayers in 0.2 mL of boiling Laemlli buffer (2% sodium dodecyl sulfate, 5% beta-mercaptoethanol, 10% glycerol and 50 mM tris[hydroxymethyl]aminomethane (Tris), pH 6.8), and the lysates were heated to 100° C. for 5 minutes. Proteins in the lysate were separated by polyacrylamide gel electrophoresis and electrophoretically transferred to nitrocellulose. The membrane was washed once in 10 mM Tris, pH 7.2, 150 mM NaCl, 0.01% Azide (TNA), and blocked overnight in TNA containing 5% bovine serum albumin and 1% ovalbumin. The membrane was blotted for 2 hours with antiphosphotyrosine antibody (UBI, 1 μg/mL in blocking buffer) and then washed twice in TNA, once in TNA containing 0.05% Tween-20 detergent and 0.05% nonidet P-40 detergent and twice in TNA. […] Band intensities were determined with a Molecular Dynamics laser densitometer.
Duplicate sets of cells were treated with a range of concentrations of the designated compound to be tested as an inhibitor for 15 minutes. The cells were then stimulated with 100 ng/mL of EGF for 5 minutes and extracts made as described under the Western Blotting Procedure.

[2] = system: A431 human epidermoid carcinoma cells; assay: Growth inhibition assay in A431 cells; assay type: cell-based; details: A-431, 72 hours, cell count, read-out: IC50, inhibition of proliferation in A431 cells
Description: A431 human epidermoid carcinoma cells were obtained from the American Type Culture Collection, Rockville, Md. and maintained as monolayers in dMEM (Dulbecco's modified eagle medium)/F12, 50:50 (Gibco/BRL) containing 10% fetal bovine serum. […] The plates were incubated for 72 hours at 37° C. in a humidified atmosphere containing 5% CO2 in air. Cell growth was determined by cell count with a Coulter Model AM electronic cell counter (Coulter Electronics, Inc., Hialeah, Fla.).

c-src tyrosine kinase = c-src tyrosine kinase (UniProt P00523); assay: Tyrosine kinase assay, c-src; assay type: biochemical
[3] = system: NIH 3T3 fibroblast transfected with the h-EGF receptor; assay: EGFR tumor xenograft in nude mice
Description: Female nude mice (NCr nu/nu, Taconic Farms) 18-20 g were implanted SC with tumor fragments (approximately 30 mg) in the region of the right axilla on Day 0. […] The vehicle was 6% dimethyl acetamide in 50 mM lactate buffer, pH 4.0Tumor volumes were recorded three times per week by measuring the length and width of the individual tumors and calculating the mass in milligrams according to the formula (a×b^2)/2, where a and b are the length and width of the tumor. Percent T/C (treated/control) was calculated based on the ratio of the median tumor volume of the treated tumors compared with the median tumor volume of the control tumors on specified measurement days.

[4] = target: T2, insulin receptor intracellular kinase domain (Homo sapiens, UniProt P06213); assay: Tyrosine kinase assay, insulin receptor; assay type: biochemical
T2 construct: Assays using intracellular kinase domains of PDGF, FGF, and insulin receptors

[5] = target: T1, EGF receptor autophosphorylation in A431 cells; assay: Irreversibility test: recovery of EGF receptor autophosphorylation after washout; assay type: cell-based; details: for remaining activity at 2 µM: A-431, A431 cells treated 2 hours with 2 μM, read-out: % of Control Autophosphorylation
Description: as §1
Duplicate sets of cells were treated with 2 μM of designated compound to be tested as an irreversible inhibitor for either 1 or 2 hours. One set of cells was then stimulated with 100 ng/mL of EGF for 5 minutes and extracts made as described under the western blotting procedure. The other set of cells were washed free of the compound with warmed serum-free media, incubated for 2 hours, washed again, incubated another 2 hours, washed again, and then incubated a further 4 hours. This set of cells was then stimulated with EGF and extracts made similar to the first set of cells.

[6] = target: EGF receptor tyrosine kinase (Homo sapiens, UniProt P00533); assay: Tyrosine kinase assay, isolated EGF receptor tyrosine kinase; assay type: biochemical
[7] = target: T3, FGF receptor intracellular kinase domain (FGF1) (Homo sapiens, UniProt P11362); assay: Tyrosine kinase assay, FGF receptor; assay type: biochemical
T3 construct: Assays using intracellular kinase domains of PDGF, FGF, and insulin receptors
T3 sequence (P11362 478-767 limits assumed): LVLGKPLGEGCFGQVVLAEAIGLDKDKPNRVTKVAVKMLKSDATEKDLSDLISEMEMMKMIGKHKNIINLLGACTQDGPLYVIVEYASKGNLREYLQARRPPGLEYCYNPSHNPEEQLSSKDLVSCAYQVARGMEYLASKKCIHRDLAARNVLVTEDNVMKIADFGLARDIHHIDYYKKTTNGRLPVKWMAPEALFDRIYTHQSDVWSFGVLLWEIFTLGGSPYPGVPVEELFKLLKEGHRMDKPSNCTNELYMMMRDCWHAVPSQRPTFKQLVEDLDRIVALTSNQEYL

EGF receptor tyrosine kinase, sequence (P00533 25-1210): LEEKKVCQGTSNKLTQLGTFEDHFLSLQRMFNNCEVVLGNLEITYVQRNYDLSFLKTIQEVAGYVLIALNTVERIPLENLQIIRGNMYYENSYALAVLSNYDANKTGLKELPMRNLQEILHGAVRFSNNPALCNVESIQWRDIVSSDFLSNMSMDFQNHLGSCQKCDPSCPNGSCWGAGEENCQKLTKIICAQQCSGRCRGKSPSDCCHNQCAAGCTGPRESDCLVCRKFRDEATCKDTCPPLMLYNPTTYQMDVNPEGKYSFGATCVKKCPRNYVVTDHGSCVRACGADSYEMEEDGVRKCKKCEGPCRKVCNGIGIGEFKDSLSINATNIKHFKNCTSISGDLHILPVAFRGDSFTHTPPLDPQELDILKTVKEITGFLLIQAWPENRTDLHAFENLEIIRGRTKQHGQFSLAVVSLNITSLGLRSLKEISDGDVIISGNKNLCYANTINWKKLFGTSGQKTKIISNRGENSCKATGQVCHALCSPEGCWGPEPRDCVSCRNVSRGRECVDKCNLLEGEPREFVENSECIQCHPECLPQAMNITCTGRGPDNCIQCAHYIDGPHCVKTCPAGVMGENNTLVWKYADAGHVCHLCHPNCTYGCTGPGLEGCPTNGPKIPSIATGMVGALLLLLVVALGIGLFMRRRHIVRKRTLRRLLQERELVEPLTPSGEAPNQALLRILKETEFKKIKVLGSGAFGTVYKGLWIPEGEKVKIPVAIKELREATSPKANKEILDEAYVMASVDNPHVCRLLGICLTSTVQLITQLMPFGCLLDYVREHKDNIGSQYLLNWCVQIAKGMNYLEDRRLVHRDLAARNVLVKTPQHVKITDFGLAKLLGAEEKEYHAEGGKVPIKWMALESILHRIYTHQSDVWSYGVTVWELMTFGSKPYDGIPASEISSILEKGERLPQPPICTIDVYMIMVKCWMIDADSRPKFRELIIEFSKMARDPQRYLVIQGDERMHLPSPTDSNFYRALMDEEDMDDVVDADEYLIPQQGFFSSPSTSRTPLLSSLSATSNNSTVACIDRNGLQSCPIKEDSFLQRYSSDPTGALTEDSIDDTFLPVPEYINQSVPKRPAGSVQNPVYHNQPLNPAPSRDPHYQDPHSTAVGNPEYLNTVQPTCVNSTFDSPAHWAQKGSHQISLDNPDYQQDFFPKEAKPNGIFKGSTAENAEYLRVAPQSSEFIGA
T1 sequence (P00533 25-1210): as above
T2 sequence (P06213 1023-1298 limits assumed): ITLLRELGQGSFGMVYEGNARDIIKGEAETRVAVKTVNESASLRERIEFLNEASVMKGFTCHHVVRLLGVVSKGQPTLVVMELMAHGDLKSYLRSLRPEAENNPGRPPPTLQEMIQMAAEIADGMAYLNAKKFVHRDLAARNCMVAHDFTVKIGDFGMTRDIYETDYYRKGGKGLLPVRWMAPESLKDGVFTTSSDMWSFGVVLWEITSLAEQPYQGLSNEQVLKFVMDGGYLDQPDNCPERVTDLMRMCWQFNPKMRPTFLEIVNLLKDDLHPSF

C=CC(=O)Nc1ccc2c(Nc3cccc(Br)c3)ncnc2c1 [Example 3, N-[4-(3-Bromo-phenylamino)-quinazolin-7-yl]acrylamide] was tested, and the IC50 [1] was 14 nM, the IC50 [2] was 300 ± 90 nM and the IC50 (c-src tyrosine kinase) was > 2500 nM. The “% T/C” value ([3]; 3 mg/kg/injection, Day 7) was 115%, the “% T/C” value ([3]; 3 mg/kg/injection, Day 10) was 138% and the “% T/C” value ([3]; 3 mg/kg/injection, Day 12) was 113%. The “% T/C” value ([3]; 30 mg/kg/injection, Day 7) was 48%, the “% T/C” value ([3]; 30 mg/kg/injection, Day 10) was 66% and the “% T/C” value ([3]; 30 mg/kg/injection, Day 12) was 53%. The “% T/C” value ([3]; 100 mg/kg/injection, Day 7) was 57%, the “% T/C” value ([3]; 100 mg/kg/injection, Day 10) was 70% and the “% T/C” value ([3]; 100 mg/kg/injection, Day 12) was 57%. For the same molecule, the “activity against tumor growth” value ([3]; 10 or 3 mg/kg/injection IP every 12 hours Days 3-7) was “No activity”, the growth delay ([3]; EGFR tumor, IP bid Days 1 through 13, 75 mg/kg) was 5 days and the activity ([3]; EGFR tumor, IP bid Days 1 through 13, 300 mg/kg) was “no activity”. The growth delay ([3]; EGFR tumor, IP bid Days 1 through 13, 190 and 120 mg/kg) was 1 days, the growth delay ([3]; EGFR tumor, IP bid Days 3 through 7, 30 mg/kg) was 2.5 days and the growth delay ([3]; EGFR tumor, IP bid Days 3 through 7, 100 mg/kg) was 4 days. The “weight loss, lethality, or clinical signs of toxicity” value ([3]; any dose level, IP every 12 hours Days 3-7) was “No weight loss, lethality, or clinical signs of toxicity”, the IC50 [4] was > 50000 nM and the “% Control After 2-Hour Incubation” value ([5]; A431 cells, 2 μM inhibitor, EGFR autophosphorylation) was 1%. For the same molecule, the “% Control After 8 Hours in Drug-Free Media Incubation” value ([5]; A431 cells, 2 μM inhibitor, washed, 8 hours drug-free) was 13%, the “time required for return of 50% of the activity” value ([5]; A431 cells, 2 μM, drug-free media (Table 3)) was 21 h and the remaining activity at 2 µM ([5]; 0 hours in drug-free media) was 0%. It also gave a remaining activity at 2 µM ([5]; 4 hours in drug-free media) of 12%, a remaining activity at 2 µM ([5]; 8 hours in drug-free media) of 23% and a remaining activity at 2 µM ([5]; 23 hours in drug-free media) of 54%. For the same molecule, the inhibition at 2 µM ([5]; A-431, A431 cells, 2 μM, end of 8 hours washoff, read-out: inhibition of the enzyme (kinase activity) after washoff) was 89%, the “specificity for the EGF receptor tyrosine kinase as opposed to other tyrosine kinase enzymes” value ([6]; Table 4) was “very high specificity” and the IC50 ([6]; Table 4, read-out: EGFR IC50) was 0.36 nM. The IC50 ([6]; isolated EGFR kinase, read-out: EGFR Tyrosine Kinase IC50) was 0.36 nM and the IC50 [7] was > 50000 nM.

— patent US7786131B2, “Pyrimido[5,4-d]pyrimidines derivatives as irreversible inhibitors of tyrosine kinases” (Warner-Lambert Company, priority 1996, dated 2010)
